Data set [1] concerns the target T1, PPARδ (Homo sapiens, UniProt Q03181).
T1 sequence (Q03181 171-441 limits assumed): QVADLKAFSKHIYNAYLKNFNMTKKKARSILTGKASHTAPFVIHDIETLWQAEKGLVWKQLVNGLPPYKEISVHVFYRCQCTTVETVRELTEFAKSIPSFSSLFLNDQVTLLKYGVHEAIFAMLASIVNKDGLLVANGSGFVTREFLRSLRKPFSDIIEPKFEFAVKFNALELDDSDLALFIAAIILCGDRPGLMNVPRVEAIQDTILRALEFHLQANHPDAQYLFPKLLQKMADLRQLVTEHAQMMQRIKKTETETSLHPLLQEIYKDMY
In words: Cross-curve PPAR transactivation test (PPARδ). In kind it is cell-based. To be noted: HeLN cells, Gal-hPPARδ, luciferase reporter; cross curves against reference agonist, Schild regression; n.a means not active; read-out: PPARs delta Kd app. How it is done: (§1) The activation of PPAR receptors with an agonist (activator) in HeLN cells leads to the expression of a reporter gene, luciferase, which, in the presence of a substrate, generates light. The modulation of the PPAR receptors is measured by quantifying the luminescence produced after incubating the cells in the presence of a reference agonist. The ligands displace the agonist from its site. The measurement of the activity is performed by quantifying the light produced. This measurement makes it possible to determine the modulatory activity of the compounds according to the invention by determining the constant that is the affinity of the molecule for the PPAR receptor. Since this value can fluctuate depending on the basal activity and the expression of the receptor, it is referred to as Kd apparent (KdApp in nM).
(§2) To determine this constant, “cross curves” of the test product against a reference agonist are produced in a 96-well plate: 10 concentrations of the test product plus a concentration 0 are arranged in a line, and 7 concentrations of the agonist plus a concentration 0 are arranged in a column. This is 88 measurement points for 1 product and 1 receptor. The remaining 8 wells are used for repeatability controls.
(§3) Measurements are also taken for total agonist controls with the same products.
(§4) The HeLN cell lines used are stable transfectants containing the plasmids ERE-βGlob-Luc-SV-Neo (reporter gene) and PPAR (α, δ, γ) Gal-hPPAR. These cells are inoculated into 96-well plates at a rate of 10 000 cells per well in 100 μl of DMEM medium without phenol red and supplemented with 10% of defatted calf serum. The plates are then incubated at 37° C. and 7% CO2 for 16 hours.
(§5) The various dilutions of the test products and of the reference ligand are added at a rate of 5 μl per well. The plates are then incubated for 18 hours at 37° C. and 7% CO2. The culture medium is removed by turning over and 100 μl of a 1:1 PBS/luciferin mixture are added to each well. After 5 minutes, the plates are read by the luminescence detector.

Data set [2] addresses T2, PPARα (Homo sapiens, UniProt Q07869).
T2 sequence (Q07869 202-468 limits assumed): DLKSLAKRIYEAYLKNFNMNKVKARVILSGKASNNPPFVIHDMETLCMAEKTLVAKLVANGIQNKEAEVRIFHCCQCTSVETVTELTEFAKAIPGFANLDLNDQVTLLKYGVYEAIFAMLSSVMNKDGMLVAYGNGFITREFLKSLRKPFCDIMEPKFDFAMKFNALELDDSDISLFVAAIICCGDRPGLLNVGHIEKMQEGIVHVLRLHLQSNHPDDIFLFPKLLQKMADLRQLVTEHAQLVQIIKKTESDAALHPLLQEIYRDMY
Description: Cross-curve PPAR transactivation test (PPARα). The class given is cell-based. The conditions noted are these: HeLN cells, Gal-hPPARα, luciferase reporter; cross curves against reference agonist, Schild regression; n.a means not active; read-out: PPAR alpha Kd app. How it is done:
as §1, §2, §3, §4, §5
For orientation: A reporter such as luciferase makes a cellular process visible.

For data set [3], the system named is sebocytes obtained from rat preputial glands. In words: Rat sebocyte culture test. In kind it is cell-based. The conditions noted are these: 120 h, 14C acetate-labelled lipids, 5 days incubation + 24 hours label, read-out: Triglycerides AC50. An excerpt: Sebocytes in culture obtained from rat preputial gland constitute a pertinent model for evaluating sebaceous function modulatory compounds as described by Rosenfield et al. (Mechanisms of androgen induction of sebocyte differentiation. Rosenfield R. L., Deplewski D., Kentsis A., Ciletti N., Dermatology, 1998; 196(1):43-6). This model has especially been used to characterize PPAR compounds with potential in dermatology (Rat preputial sebocyte differentiation involves peroxisome proliferator-activated receptors. Rosenfield R. L., Kentsis A., Deplewski D., Ciletti N., J. Invest. Dermatol., 1999 February; 112(2):226-32). These sebocytes have functional similarities close to those of human skin sebocytes (response to androgens and to anti-androgens, accumulation of specific sebum lipids, expression of specific markers of the sebaceous gland). The data resulting from this test are considered as pertinent of potential activity on the human sebaceous gland.
Protocol for culturing sebocytes obtained from rat preputial glands
The preputial glands are obtained from 10-week-old male rats. They are extracted under anesthesia with isoflurane, before euthanizing the animals. The glands are then digested enzymatically with trypsin (0.25% trypsin+collagenase H 1.5 mg/ml/gland). The cells are cultured for 24 hours in 24-well plates (37° C., 5% CO2) in DMEM culture medium supplemented with various factors, especially fetal calf serum (10%), glutamine (1%), a cocktail of antibiotics and anti-mycotic agents and insulin (5 μg/ml). The cells are then placed in Cellgro medium supplemented with various factors (Mediatech®) and the test compounds are then added in response doses (duplicate). After incubation for 5 days, 10 μl of radio labeled (^14C) acetate are added to the culture medium (0.2 μCi/μl, Amersham). The cells are incubated for 24 hours and then washed and recovered after digestion with trypsin. The radiolabelled lipids are then extracted using a methanol/dichloromethane mixture (1/2) and placed on a silica TLC plate (Merck®) using a loading robot. The lipids are then separated and quantified after revelation using a Phosphorimager (analysis by image analysis software). For each compound, the AC50 (concentration for which 50% of the effect of the compound is obtained) is determined. The results are expressed as nanomolar concentration for the following specific sebaceous gland lipids: Triglycerides and/or Cholesterol esters.

Data set [4] addresses T3, PPARγ (Homo sapiens, UniProt P37231).
T3 sequence (P37231 238-505 limits assumed): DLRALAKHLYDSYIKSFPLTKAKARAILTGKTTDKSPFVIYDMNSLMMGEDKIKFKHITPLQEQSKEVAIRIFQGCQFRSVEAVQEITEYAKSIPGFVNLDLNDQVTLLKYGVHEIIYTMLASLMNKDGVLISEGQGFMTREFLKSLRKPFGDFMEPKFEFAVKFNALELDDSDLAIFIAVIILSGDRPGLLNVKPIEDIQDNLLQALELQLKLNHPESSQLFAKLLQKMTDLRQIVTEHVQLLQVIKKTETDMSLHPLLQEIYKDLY
In words: Cross-curve PPAR transactivation test (PPARγ). In kind it is cell-based. To be noted: HeLN cells, Gal-hPPARγ, luciferase reporter; cross curves against reference agonist, Schild regression; n.a means not active; read-out: PPAR gamma Kd app. As to the method:
as §1, §2, §3, §4, §5

Consider `CCCCCNC(=O)N(C)c1cccc(-c2ccc(CCC(=O)O)cc2OCCCC)c1` [Example 41, 3-[2-butoxy-3′-(1-methyl-3-pentylureido)biphenyl-4-yl]propanoic acid], for which the values for the Kd in data set [1], in data set [2] and in data set [4] were 2000 nM, 60 nM and 0.5 nM, respectively. In data set [3], the half-maximal activity concentration (AC50) (commonly the midpoint of the concentration-response curve, whichever way the signal moves) amounted to 0.008 nM.
Take `CN(C(=O)Nc1ccc(OCc2ccccc2)cc1)c1cccc(-c2ccc(CCC(=O)O)cc2)c1` [Example 13, 3-{3′-[3-(4-benzyloxyphenyl)-1-methylureido]biphenyl-4-yl}propanoic acid]: the melting point (as a rule, the temperature of the solid-liquid transition) was 173.5 to 175 °C. Further, the Kd in data set [1] is 2000 nM. Also, the Kd in data set [4] worked out at 2 nM.
For `CCCCCCCNC(=O)N(C)c1cccc(-c2ccc(CCC(=O)O)cc2OCCCC)c1` [Example 26, 3-[2-butoxy-3′-(3-heptyl-1-methylureido)biphenyl-4-yl]propanoic acid], the figures for the Kd in data set [1], in data set [2] and in data set [4] were 1000 nM, 250 nM and 0.25 nM, respectively. Further, the concentration at half-maximal activity (AC50) in data set [3] turned out to be 0.005 nM.
For `CCCCCCCNC(=O)N(C)c1cccc(-c2ccc(CCC(=O)O)cc2OCCC(C)C)c1` [Example 16, 3-[3′-(3-heptyl-1-methylureido)-2-(3-methylbutoxy)biphenyl-4-yl]propanoic acid], the Kd worked out at 1000 nM in data set [2] and 1 nM in data set [4]. In addition, in data set [3], the AC50 turned out to be 0.008 nM.
For `CCCCCCCNC(=O)N(C)c1cccc(-c2ccc(CCC(=O)O)cc2)c1` [Example 2, 3-[3′-(3-heptyl-1-methylureido)biphenyl-4-yl]propanoic acid], the melting point came out at 101 °C. The Kd in data set [1] came to 500 nM. For the same compound, the Kd in data set [4] worked out at 2 nM.
For `CCCCCCCNC(=O)N(C)c1cccc(-c2ccc(CCC(=O)O)cc2OCc2ccc(F)cc2)c1` [Example 44, 3-[2-(4-fluorobenzyloxy)-3′-(3-heptyl-1-methylureido)biphenyl-4-yl]propanoic acid], the Kd was 1000 nM in data set [2] and 1 nM in data set [4]. In addition, the AC50 in data set [3] was determined as 0.008 nM.
In the same order, the values of `CCCCCCCNC(=O)N(C)c1cccc(-c2ccc(CCC(=O)O)cc2OCCCC(F)(F)F)c1` [Example 38, 3-[3′-(3-heptyl-1-methylureido)-2-(4,4,4-trifluorobutoxy)biphenyl-4-yl]propanoic acid] are 250 nM, 1 nM and 0.006 nM.
